Test results: US20120172390A1, “METHOD OF TREATING SLEEP DISORDERS USING THE COMBINATION OF EPLIVANSERIN AND ZOLPIDEM” (priority 2009, published 2012)

Tests used:
[1] = Bond-Lader Visual Analog Scale (VAS), next-day morning; format: in vivo, human
[2] = Critical Flicker Fusion (CFF) test, next-day morning; format: in vivo, human
[3] = Adverse events and tolerability in healthy individuals
Procedure: Single center study employing a two-part, double-blind, randomized, placebo- and active-controlled, 4-way crossover design (FIG. 1). Eligibility criteria included certification of good health, 18-50 years of age, and written informed consent.
Part A (the first part of the study): participants were first administered either one evening dose of flurazepam 30 mg or matching placebo, and after a 21-day washout period, participants were administered the other treatment.
Part B: participants received either an evening dose of eplivanserin 5 mg or matching placebo for 21 days, followed by co-administration with a single dose of zolpidem-IR 10 mg.
After this phase of the study, participants were then administered the reverse treatment sequence.
Adverse events were recorded (Medical Dictionary for Regulatory Activities v9.1). Other measures included vital signs, standard clinical laboratory parameters (biochemistry, hematology, and urinalysis), and electrocardiograms.

[4] = set-up: species or system human; settings: in vivo
GABA receptors = settings: unlike benzodiazepines; cited from earlier work
[5] = Immediate recall of Word list, next-day morning; format: in vivo, human
[6] = Delayed Recall of Word Lists, next-day morning; format: in vivo, human
[7] = Steady-state levels after repeated administration in the study; format: in vivo, human; settings: after 20 days of repeated administration of eplivanserin 5 mg; also for its active metabolite
Procedure: As a consequence, cognitive/psychomotor performance was assessed under steady state conditions.

[8] = in vivo; cited from earlier work
[9] = Global analysis of the 7 primary psychomotor/cognitive endpoints (multivariate mixed effect model); format: in vivo, human
[10] = Compensatory Tracking Task (CTT), next-day morning; format: in vivo, human
[11] = eplivanserin 5 mg evening dose for 21 days vs placebo, P>0.1
[12] = flurazepam 30 mg single evening dose vs placebo, P=0.0001

For `CN(C)CCO/N=C(/C=C/c1ccc(O)cc1)c1ccccc1F` [eplivanserin, (1Z, 2 E)-1-(2-fluorophenyl)-3-(4-hydroxyphenyl)-prop-2-en-1-one-O-(2-dimethylaminoethyl)oxime], the “Bond and Lader visual analogue scale alertness, mean difference estimate” value [1, 11] was 9.38, the “CFF point of subjective equality, mean difference estimate” value ([2]; eplivanserin 5 mg evening dose for 21 days vs placebo, P=0.0002) was −1.01 Hz and the “Headache, participants reporting” value ([3]; Part B, eplivanserin 5 mg 21 days, 6/24, placebo also 25%) was 25%. For the same compound, the “Dizziness, somnolence and asthenia, participants reporting” value ([3]; Part B, eplivanserin 5 mg 21 days, 7/24, placebo 4.2% (1/24)) was 29.2%, the Tolerability ([3]; eplivanserin 5 mg, alone and in combination with zolpidem) was “well tolerated” and the “CRT total reaction time, mean difference estimate” value [4] was -10.40 ms. For the same compound, the “Binding to GABA receptors” value (GABA receptors) was “does not bind”, the “Immediate word recall number of correct responses, mean difference estimate” value [5, 11] was −1.04 and the “Delayed word recall number of correct responses, mean difference estimate” value [6, 11] was −0.33. The Steady-state levels [7] was “Steady-state levels were reached”, the Absorption [8] was greater than 70% and the “Overall treatment effect on the 7 primary endpoints (global analysis)” value ([9]; eplivanserin 5 mg 21 days alone compared with placebo, P=0.0603) was “not associated with an overall treatment effect”. For the same compound, the “Compensatory tracking task overall average response time, mean difference estimate” value [10, 11] was 13.03 ms and the “Compensatory tracking task overall average tracking errors, mean difference estimate” value [10, 11] was −0.22 pixels.
With `CCN(CC)CCN1C(=O)CN=C(c2ccccc2F)c2cc(Cl)ccc21` [flurazepam, reference compound] the “Bond and Lader visual analogue scale alertness, mean difference estimate” value ([1]; flurazepam 30 mg single evening dose vs placebo, P=0.0031) was 62.38, the “CFF point of subjective equality, mean difference estimate” value ([2]; flurazepam 30 mg single evening dose vs placebo, P=0.2005) was −0.52 Hz and the Adverse events reported ([3]; Part A, flurazepam 30 mg single dose, healthy individuals) was 2/24. For the same compound, the “CRT total reaction time, mean difference estimate” value [4] was 47.46 ms, the “Immediate word recall number of correct responses, mean difference estimate” value [5, 12] was −3.08 and the “Delayed word recall number of correct responses, mean difference estimate” value [6, 12] was −4.38. For the same compound, the “Overall treatment effect on the 7 primary endpoints (global analysis)” value ([9]; flurazepam 30 mg single dose compared with placebo, P=0.0001) was “associated with an overall treatment effect”, the “Compensatory tracking task overall average response time, mean difference estimate” value ([10]; flurazepam 30 mg single evening dose vs placebo, P=0.0029) was 49.98 ms and the “Compensatory tracking task overall average tracking errors, mean difference estimate” value ([10]; flurazepam 30 mg single evening dose vs placebo, P=0.0221) was 1.64 pixels.
With `Cc1ccc(-c2nc3ccc(C)cn3c2CC(=O)N(C)C)cc1` [zolpidem] the Adverse events reported ([3]; Part B, co-administration phase with single dose zolpidem-IR 10 mg) was 1/24.
